# ChEMBL document CHEMBL1201862, “PubChem BioAssay data set” (2004)
# Calls of active or inactive are those of the source.
# Columns and labels:
# [1] = target: Dual specificity protein phosphatase 6 (Rattus norvegicus, UniProt Q64346); experiment: inhibition of rat DUSP6 enzyme activity – biochemical, in vitro, primary screen (AID 425)
# [2] = HIV-1 Vif–A3G interaction blockers – biochemical, TR-FRET, GST-Vif 1-94, biotin-A3G peptide, dose response retest, primary screen (AID 1117319); format: functional;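 also: TR-FRET signal of purified GST-Vif binding a biotinylated A3G peptide; inhibitors lower the FRET signal by blocking Vif and A3G binding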
# [3] = IC50 of Artemis nuclease activity blockers – biochemical, fluorescence intensity, dose response (AID 720701); format: functional;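 also: Artemis endonuclease enzyme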
# [4] = HPDE-C7 pancreatic duct cell viability loss – fluorescence, HTS (AID 430); format: functional, cell-based; settings: Homo sapiens
# Protein Tat = Protein Tat (Human immunodeficiency virus type 1 group M subtype B (isolate HXB2)(HIV-1), UniProt P04608); format: functional;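 also: tat binding to TAR RNA read out by fluorescence polarization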
# Estrogen receptor beta = Estrogen receptor beta (Homo sapiens, UniProt Q92731); experiment: blockers of SRC-3 recruitment to ERβ – biochemical, ELISA, streptavidin-HRP readout, orthogonal assay, confirmation (AID 1060)
# [5] = viability loss in THP-1 monocytes – THP-1 cells, cytotoxicity control for Vif-APOBEC3G degradation inhibitor project, dose response (AID 1117359); format: functional; settings: THP-1
# [6] = viability loss of HPDE-C7K cells – cell-based, fluorescence, HTS, primary screen (AID 431); format: functional; settings: Homo sapiens
# [7] = target: 5-hydroxytryptamine receptor 1A (Homo sapiens, UniProt P08908); format: functional
# [8] = Luminescence Cell-Based Dose Confirmation HTS to Identify Inhibitors of Platelet Dense Granule Release. [Related pubchem assays: 1663 (Primary HTS), 1678 (Summary of Project)]; format: functional
# [9] = Fluorescence Cell-Based Dose Response to Identify Inhibitors of Thrombin Receptor-Activating Peptide SFLLRN-Mediated P-Selectin Induction on Platelets. [Related pubchem assays: 1663 (Primary HTS), 1889 (retest at dose ), 1891 (counterscreen), 1678 (Project Summary)]; format: functional
# [10] = target: Luciferin 4-monooxygenase (Photinus pyralis, UniProt P08659); experiment: inhibition of purified Photinus pyralis luciferase – biochemical, luminescence, dose response (AID 1891)
# [11] = target: Aryl hydrocarbon receptor (Homo sapiens, UniProt P35869); experiment: Luminescence-based cell-based high throughput dose response assay for activators of the Aryl Hydrocarbon Receptor (AHR). [Related pubchem assays: 2796 (Primary screen (AHR activators in singlicate)), 2845 (Confirmation screen (AHR activators in triplicate)), 434939 (Counterscreen (PXR activators in triplicate)), 2804 (Summary (AHR activators))]; format: ADME
# Chain of Aryl hydrocarbon receptor (P35869 whole entry): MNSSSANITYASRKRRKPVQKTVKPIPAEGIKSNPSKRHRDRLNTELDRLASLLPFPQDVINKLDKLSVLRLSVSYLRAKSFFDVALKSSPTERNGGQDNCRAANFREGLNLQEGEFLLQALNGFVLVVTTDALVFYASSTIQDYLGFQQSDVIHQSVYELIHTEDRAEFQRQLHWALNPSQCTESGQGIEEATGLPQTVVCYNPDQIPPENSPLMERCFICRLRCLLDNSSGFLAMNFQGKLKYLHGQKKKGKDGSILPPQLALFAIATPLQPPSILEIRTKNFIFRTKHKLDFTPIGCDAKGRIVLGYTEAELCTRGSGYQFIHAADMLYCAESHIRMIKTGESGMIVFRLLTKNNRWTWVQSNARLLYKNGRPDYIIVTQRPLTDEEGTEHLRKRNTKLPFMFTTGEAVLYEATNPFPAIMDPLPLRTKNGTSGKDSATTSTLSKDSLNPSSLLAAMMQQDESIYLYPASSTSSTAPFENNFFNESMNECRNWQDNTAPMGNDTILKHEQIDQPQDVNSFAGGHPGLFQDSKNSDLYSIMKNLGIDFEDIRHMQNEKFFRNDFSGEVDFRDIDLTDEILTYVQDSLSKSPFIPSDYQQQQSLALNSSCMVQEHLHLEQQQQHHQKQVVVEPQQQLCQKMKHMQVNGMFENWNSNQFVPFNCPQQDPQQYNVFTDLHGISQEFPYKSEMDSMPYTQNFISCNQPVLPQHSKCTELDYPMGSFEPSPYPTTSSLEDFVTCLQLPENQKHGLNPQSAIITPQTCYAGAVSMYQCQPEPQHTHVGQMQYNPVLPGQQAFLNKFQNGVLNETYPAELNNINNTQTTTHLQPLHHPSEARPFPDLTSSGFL
# Chain of 5-hydroxytryptamine receptor 1A (P08908 whole entry): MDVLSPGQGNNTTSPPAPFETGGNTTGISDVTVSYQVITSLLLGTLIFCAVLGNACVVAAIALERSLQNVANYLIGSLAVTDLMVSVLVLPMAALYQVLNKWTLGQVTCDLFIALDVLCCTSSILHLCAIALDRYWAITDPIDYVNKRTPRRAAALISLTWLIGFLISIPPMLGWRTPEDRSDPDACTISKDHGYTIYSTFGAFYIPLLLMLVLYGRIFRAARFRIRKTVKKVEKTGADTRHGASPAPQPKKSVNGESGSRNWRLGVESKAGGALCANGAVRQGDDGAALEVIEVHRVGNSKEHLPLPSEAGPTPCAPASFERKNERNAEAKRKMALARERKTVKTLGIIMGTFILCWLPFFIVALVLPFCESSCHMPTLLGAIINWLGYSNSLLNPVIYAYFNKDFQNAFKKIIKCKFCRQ
# Chain of Dual specificity protein phosphatase 6 (Q64346 whole entry): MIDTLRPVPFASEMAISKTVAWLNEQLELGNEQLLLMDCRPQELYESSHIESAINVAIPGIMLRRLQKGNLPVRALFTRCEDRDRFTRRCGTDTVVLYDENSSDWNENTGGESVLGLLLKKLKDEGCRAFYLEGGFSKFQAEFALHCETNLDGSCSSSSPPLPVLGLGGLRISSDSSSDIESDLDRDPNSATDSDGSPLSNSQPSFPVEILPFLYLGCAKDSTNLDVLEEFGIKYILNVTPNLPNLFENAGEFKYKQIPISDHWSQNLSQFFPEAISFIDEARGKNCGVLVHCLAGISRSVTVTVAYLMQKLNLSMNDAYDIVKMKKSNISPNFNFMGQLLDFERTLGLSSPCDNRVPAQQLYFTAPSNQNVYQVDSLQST
# Chain of Protein Tat (P04608 whole entry): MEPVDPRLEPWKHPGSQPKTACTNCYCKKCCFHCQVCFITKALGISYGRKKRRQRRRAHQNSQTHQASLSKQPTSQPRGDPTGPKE
# Chain of Estrogen receptor beta (Q92731 whole entry): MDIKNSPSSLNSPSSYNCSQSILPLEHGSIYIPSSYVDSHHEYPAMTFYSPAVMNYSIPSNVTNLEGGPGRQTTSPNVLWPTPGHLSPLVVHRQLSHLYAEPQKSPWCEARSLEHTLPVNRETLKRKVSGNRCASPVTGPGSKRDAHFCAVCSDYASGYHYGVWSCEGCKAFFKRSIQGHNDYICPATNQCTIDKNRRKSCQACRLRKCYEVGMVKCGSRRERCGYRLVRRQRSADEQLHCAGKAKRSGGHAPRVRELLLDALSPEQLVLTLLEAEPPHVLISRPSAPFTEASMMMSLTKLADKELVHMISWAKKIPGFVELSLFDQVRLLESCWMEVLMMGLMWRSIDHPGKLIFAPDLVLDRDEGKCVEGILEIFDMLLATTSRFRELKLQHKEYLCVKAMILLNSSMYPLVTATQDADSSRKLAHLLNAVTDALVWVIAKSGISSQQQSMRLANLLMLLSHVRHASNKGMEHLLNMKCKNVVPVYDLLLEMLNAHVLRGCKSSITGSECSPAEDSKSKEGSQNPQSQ
# Chain of Luciferin 4-monooxygenase (P08659 whole entry): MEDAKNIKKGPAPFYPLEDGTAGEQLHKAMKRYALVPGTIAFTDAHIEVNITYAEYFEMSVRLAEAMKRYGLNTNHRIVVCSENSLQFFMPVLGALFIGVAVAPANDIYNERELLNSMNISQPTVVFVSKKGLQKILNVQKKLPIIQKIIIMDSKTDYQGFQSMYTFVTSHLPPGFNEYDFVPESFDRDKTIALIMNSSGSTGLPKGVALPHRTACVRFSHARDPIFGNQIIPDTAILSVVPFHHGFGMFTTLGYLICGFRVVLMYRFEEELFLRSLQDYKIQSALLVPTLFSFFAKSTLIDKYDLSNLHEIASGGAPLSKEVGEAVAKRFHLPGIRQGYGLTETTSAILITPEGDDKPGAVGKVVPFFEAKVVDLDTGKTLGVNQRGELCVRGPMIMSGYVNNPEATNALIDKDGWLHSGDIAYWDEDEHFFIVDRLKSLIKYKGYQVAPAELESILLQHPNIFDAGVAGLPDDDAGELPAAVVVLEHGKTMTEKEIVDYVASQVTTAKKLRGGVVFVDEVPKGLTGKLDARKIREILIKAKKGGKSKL
structure (smiles),measurement,setting,value
CSc1nc(N(CCO)CCO)c2sc3nc(-c4ccco4)c4c(c3c2n1)CCC4,IC50,[1],> 10 µM (not active)
same,IC50,[2],> 34.6 µM (active)
same,IC50,[3],> 20 µM (inactive)
same,EC50,[4],12.6 µM (active)
same,IC50,Protein Tat,57.3 µM (inconclusive)
same,IC50,Estrogen receptor beta,> 50 µM (not active)
same,CC50,[5],> 40 µM (active)
same,EC50,[6],5.95 µM (active)
CCCCN(C)CCCNC(=O)Cn1c(=O)sc2ccccc21,EC50,[7],> 50 µM (not active)
COc1cc2c(cc1OC)-c1cc(N3CCc4ccccc43)nc(=O)n1CC2,EC50,[8],6.83 µM (active)
same,EC50,[9],< 0.3 µM (active)
same,EC50,[10],> 112 µM (not active)
NNc1nc(O)c2c3c(sc2n1)-c1ccccc1CC3,EC50,[11],0.373 µM (active)
